Test results published in patent US11180483B2, “Substituted reverse pyrimidine Bmi-1 inhibitors” (PTC Therapeutics, Inc., priority 2012, dated 2021).

Key:
Bmi-1 = test: Sandwich ELISA Assay (Bmi-1 ELISA) in HT-1080 cells; type: cell-based
How it was run: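 Bmi-1 in lysates was measured by a three-antibody ELISA with TMB, OD450 minus OD570 reference, interpolated on a GST-tagged recombinant Bmi-1 standard curve, 0-8000 pg/mL. Lysates came from HT-1080 cells treated 40-48 h with compound, final DMSO 0.5%.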

Row | Compound | EC50 (Bmi-1) | melting point
1 | Nc1cc(Nc2ccc(C(F)(F)F)cc2)nc(-c2c(C(F)(F)F)nc3ccccn23)n1 [Cpd 66, 2-[2-(trifluoromethyl)imidazo[1,2-a]pyridin-3-yl]-N-[4-(trifluoromethyl)phenyl]pyrimidine-4,6-diamine] | 10 to 100 nM | 203 to 205 °C
2 | Nc1cc(Nc2ccc(OC(F)(F)F)cc2)nc(-c2c(C(F)(F)F)nc3ccccn23)n1 [Cpd 67, N-[4-(trifluoromethoxy)phenyl]-2-[2-(trifluoromethyl]imidazo[1,2-a]pyridin-3-yl]pyrimidine-4,6-diamine] | 100 to 3000 nM | 199 to 202 °C
3 | Cc1nc2ccc(F)cn2c1-c1nc(N)cc(Nc2ccc(OC(F)F)cc2)n1 [Cpd 69, N-[4-(difluoromethoxy)phenyl]-2-(6-fluoro-2-methylimidazo[1,2-a]pyridin-3-yl)pyrimidine-4,6-diamine] | 10 to 100 nM | 136 to 138 °C
4 | Cc1nn(C)c(C)c1-c1nc(N)cc(Nc2ccc(C(F)(F)F)cc2)n1 [Cpd 70, N-[4-(trifluoromethyl)phenyl]-2-(1,3,5-trimethyl-1H-pyrazol-4-yl)pyrimidine-4,6-diamine] | 100 to 3000 nM | 270 to 271 °C
5 | Cc1nc2ccc(F)cc2n1-c1nc(N)cc(Nc2ccc(OC(F)F)cc2)n1 [Cpd 72, N-[4-(difluoromethoxy)phenyl]-2-(6-fluoro-2-methyl-1H-benzimidazol-1-yl)pyrimidine-4,6-diamine] | 10 to 100 nM | 168 to 170 °C
6 | Nc1cc(Nc2ccc(OC(F)F)c(F)c2)nc(-c2c(C3CC3)nc3ccc(F)cn23)n1 [Cpd 75, 2-(2-cyclopropyl-6-fluoroimidazo[1,2-a]pyridin-3-yl)-N-[4-(difluoromethoxy)-3-fluorophenyl]pyrimidine-4,6-diamine] | 100 to 3000 nM | 198 to 200 °C
7 | Cc1nc2ccc(F)cc2n1-c1nc(N)cc(Nc2ccc(OC(F)F)c(F)c2)n1 [Cpd 76, N-[4-(difluoromethoxy)-3-fluorophenyl]-2-(6-fluoro-2-methyl-1H-benzimidazol-1-yl)pyrimidine-4,6-diamine] | 10 to 100 nM | 182 to 183 °C
8 | CCc1nc2ccc(F)cc2n1-c1nc(N)cc(Nc2ccc(OC(F)F)c(F)c2)n1 [Cpd 77, N-[4-(difluoromethoxy)-3-fluorophenyl]-2-(2-ethyl-6-fluoro-1H-benzimidazol-1-yl)pyrimidine-4,6-diamine] | 10 to 100 nM | 156 to 158 °C
9 | Nc1cc(Nc2ccc(OC(F)F)c(F)c2)nc(-n2c(C3CC3)nc3ccc(F)cc32)n1 [Cpd 78, 2-(2-cyclopropyl-6-fluoro-1H-benzimidazol-1-yl)-N-[4-(difluoromethoxy)-3-fluorophenyl]pyrimidine-4,6-diamine] | 10 to 100 nM | 186 to 188 °C
10 | CCc1nc2ccc(F)cc2n1-c1nc(N)cc(Nc2ccc(C(F)(F)F)cc2)n1 [Cpd 81, 2-(2-ethyl-6-fluoro-1H-benzimidazol-1-yl)-N-[4-(trifluoromethyl)phenyl]pyrimidine-4,6-diamine] | 10 to 100 nM | 201 to 203 °C
11 | Cc1nc2ncc(F)cn2c1-c1nc(N)cc(Nc2ccc(C(F)(F)F)cc2)n1 [Cpd 100, 2-(6-fluoro-2-methylimidazo[1,2-a]pyrimidin-3-yl)-N-[4-(trifluoromethyl)phenyl]pyrimidine-4,6-diamine] | 100 to 3000 nM | 256 to 258 °C
12 | Nc1cc(Nc2ccc(OC(F)F)cc2)nc(-n2c(C3CC3)nc3ccc(F)cc32)n1 [Cpd 143, 2-(2-cyclopropyl-6-fluoro-1H-benzimidazol-1-yl)-N-[4-(difluoromethoxy)phenyl]pyrimidine-4,6-diamine] | 1 to 10 nM | 175 to 177 °C
13 | CCc1nc2ccc(F)cc2n1-c1nc(N)cc(Nc2ccc(OC(F)F)cc2)n1 [Cpd 144, N-[4-(difluoromethoxy)phenyl]-2-(2-ethyl-6-fluoro-1H-benzimidazol-1-yl)pyrimidine-4,6-diamine] | 10 to 100 nM | 166 to 168 °C
14 | Nc1cc(Nc2ccc(OC(F)F)cc2)nc(-n2c(C(F)F)nc3ccc(F)cc32)n1 [Cpd 145, N-[4-(difluoromethoxy)phenyl]-2-[2-(difluoromethyl)-6-fluoro-1H-benzimidazol-1-yl]pyrimidine-4,6-diamine] | 1 to 10 nM | 114 to 115 °C
15 | Nc1cc(Nc2ccc(C(F)(F)F)cc2)nc(-n2c(C3CC3)nc3ccccc32)n1 [Cpd 149, 2-(2-cyclopropyl-1H-benzimidazol-1-yl)-N-[4-(trifluoromethyl)phenyl]pyrimidine-4,6-diamine] | 10 to 100 nM | 199 to 201 °C
16 | COCc1nc2ccccc2n1-c1nc(N)cc(Nc2ccc(C(F)(F)F)cc2)n1 [Cpd 150, 2-[2-(methoxymethyl)-1H-benzimidazol-1-yl]-N-[4-(trifluoromethyl]phenyl]pyrimidine-4,6-diamine] | 10 to 100 nM | 212 to 213 °C
17 | CC(C)c1nc2ccccc2n1-c1nc(N)cc(Nc2ccc(C(F)(F)F)cc2)n1 [Cpd 151, 2-[2-(propan-2-yl)-1H-benzimidazol-1-yl]-N-[4-(trifluoromethyl]phenyl]pyrimidine-4,6-diamine] | 10 to 100 nM | 216 to 218 °C

Row | Compound | EC50 (Bmi-1) | melting point
18 | Nc1cc(Nc2ccc(C(F)(F)F)cc2)nc(-n2c(C(F)F)nc3ccccc32)n1 [Cpd 152, 2-[2-(difluoromethyl)-1H-benzimidazol-1-yl]-N-[4-(trifluoromethyl)phenyl]pyrimidine-4,6-diamine] | 10 to 100 nM | 187 to 188 °C
19 | CCc1nc2ccccc2n1-c1nc(N)cc(Nc2ccc(C(F)(F)F)cc2)n1 [Cpd 153, 2-(2-ethyl-1H-benzimidazol-1-yl)-N-[4-(trifluoromethyl]phenyl]pyrimidine-4,6-diamine] | 10 to 100 nM | 183 to 185 °C
20 | Cc1cn2c(-c3nc(N)c(F)c(Nc4ccc(C(F)(F)F)cc4)n3)c(C)nc2c(C)n1 [Cpd 174, 5-fluoro-N-[4-(trifluoromethyl)phenyl]-2-(2,6,8-trimethylimidazo[1,2-a]pyrazin-3-yl)pyrimidine-4,6-diamine] | 100 to 3000 nM | 166 to 168 °C
21 | Cc1cn2c(-c3nc(N)c(F)c(Nc4ccc(OC(F)F)cc4)n3)c(C)nc2c(C)n1 [Cpd 175, N-[4-(difluoromethoxy)phenyl]-5-fluoro-2-(2,6,8-trimethylimidazo[1,2-a]pyrazin-3-yl)pyrimidine-4,6-diamine] | 100 to 3000 nM | 141 to 143 °C
22 | Cc1cn2c(-c3nc(N)c(F)c(Nc4ccc(OC(F)F)c(F)c4)n3)c(C)nc2c(C)n1 [Cpd 176, N-[4-(difluoromethoxy)-3-fluorophenyl]-5-fluoro-2-(2,6,8-trimethylimidazo[1,2-a]pyrazin-3-yl)pyrimidine-4,6-diamine] | 100 to 3000 nM | 140 to 141 °C
23 | CCc1nn2ccc(F)cc2c1-c1nc(N)c(F)c(Nc2ccc(OC(F)F)cc2)n1 [Cpd 186, N-[4-(difluoromethoxy)phenyl]-2-(2-ethyl-5-fluoropyrazolo[1,5-a]pyridin-3-yl)-5-fluoropyrimidine-4,6-diamine] | 100 to 3000 nM | 103 to 105 °C
24 | CCc1nn2ccc(F)cc2c1-c1nc(N)c(F)c(Nc2ccc(C(F)(F)F)cc2)n1 [Cpd 187, 2-(2-ethyl-5-fluoropyrazolo[1,5-a]pyridin-3-yl)-5-fluoro-N-[4-(trifluoromethyl)phenyl]pyrimidine-4,6-diamine] | 100 to 3000 nM | 164 to 166 °C
25 | CCc1nn2ccc(F)cc2c1-c1nc(N)c(F)c(Nc2ccc(OC(F)F)c(F)c2)n1 [Cpd 188, N-[4-(difluoromethoxy)-3-fluorophenyl]-2-(2-ethyl-5-fluoropyrazolo[1,5-a]pyridin-3-yl)-5-fluoropyrimidine-4,6-diamine] | 100 to 3000 nM | 150 to 152 °C
26 | Cc1nc2ccccc2n1-c1nc(N)cc(Nc2ccc3c(c2)OCO3)n1 [Cpd 205, N-(1,3-benzodioxol-5-yl)-2-(2-methyl-1H-benzimidazol-1-yl)pyrimidine-4,6-diamine] | 1 to 10 nM | 166 to 167 °C
27 | Nc1nc(-n2c(C3CC3)nc3ccccc32)nc(Nc2ccc(OC(F)(F)F)cc2)c1F [Cpd 278, 2-(2-cyclopropyl-1H-benzimidazol-1-yl)-5-fluoro-N-[4-(trifluoromethoxy)phenyl]pyrimidine-4,6-diamine] | 100 to 3000 nM | 
28 | Nc1nc(-n2c(C3CC3)nc3ccccc32)nc(Nc2ccc(Cl)cc2)c1F [Cpd 279, N-(4-chlorophenyl)-2-(2-cyclopropyl-1H-benzimidazol-1-yl)-5-fluoropyrimidine-4,6-diamine] | 10 to 100 nM | 
29 | Nc1nc(-n2c(C3CC3)nc3ccccc32)nc(Nc2ccc(Cl)c(F)c2)c1F [Cpd 280, N-(4-chloro-3-fluorophenyl)-2-(2-cyclopropyl-1H-benzimidazol-1-yl)-5-fluoropyrimidine-4,6-diamine] | 10 to 100 nM | 
30 | Cc1ccc(Nc2nc(-n3c(C)nc4cc(F)ccc43)nc(N)c2F)cc1 [Cpd 281, 5-fluoro-2-(5-fluoro-2-methyl-1H-benzimidazol-1-yl)-N-(4-methylphenyl)pyrimidine-4,6-diamine] | 1 to 10 nM | 
31 | COc1ccc(Nc2nc(-n3c(C)nc4cc(F)ccc43)nc(N)c2F)cc1 [Cpd 282, 5-fluoro-2-(5-fluoro-2-methyl-1H-benzimidazol-1-yl)-N-(4-methoxyphenyl)pyrimidine-4,6-diamine] | 1 to 10 nM | 
32 | Cc1nc2cc(F)ccc2n1-c1nc(N)c(F)c(Nc2ccc(OC(F)(F)F)cc2)n1 [Cpd 283, 5-fluoro-2-(5-fluoro-2-methyl-1H-benzimidazol-1-yl)-N-[4-(trifluoromethoxy)phenyl]pyrimidine-4,6-diamine] | 100 to 3000 nM | 
33 | Cc1nc2ccc(N)cc2n1-c1nc(N)c(F)c(Nc2ccc(C(F)(F)F)cc2)n1 [Cpd 284, 2-(6-amino-2-methyl-1H-benzimidazol-1-yl)-5-fluoro-N-[4-(trifluoromethyl)phenyl]pyrimidine-4,6-diamine] | 10 to 100 nM | 
